According to paper PMC9481538, “The interaction between LC8 and LCA5 reveals a novel oligomerization function of LC8 in the ciliary-centrosome system” (Scientific Reports, 2022):
Where no end group is shown, it is not given here.

Tests used:
GST-fused LC8 = assay: GST pull-down of LC8 and sLCA5; format: binding; conditions: GST-LC8 bait, MBP-, 6x-His-fused sLCA5 prey, PBS, 1 mM DTT, room temperature; result in words
Method: For the pull-down experiments, GST-fused LC8 was used as bait, and MBP-, 6x-His-fused LCA5 variants as prey. For controls, GST and MBP were used. Proteins were expressed in 100 ml cultures of E. coli BL21 (DE3) Rosetta cells as described above. Cells were harvested, resuspended in 5 ml PBS supplemented with 1 mg/ml lysozyme and 1 mM DTT, sonicated and clarified by centrifugation. 20 μl of Glutathione Sepharose 4B (Macherey–Nagel) (75%) resin was used for each experiment. Baits were incubated with the resin for 1 h at room temperature, then washed with PBS supplemented with 1 mM DTT. Prey proteins were added and incubated for one hour. The beads were washed and eluted by boiling in a 2 × SDS sample buffer and analyzed in tricine SDS page according to the protocol of Schagger et al[43].

LC8 [1] = molecular target: T1, LC8 (Homo sapiens, UniProt Q96FJ2); assay: isothermal titration calorimetry, LCA5 peptide injected to LC8; format: binding; conditions: MicroCal PEAQ-ITC, PBS pH 7.4, 1 mM TCEP, 25 °C; peptide injected 18 x 2 μl into LC8
T1 construct: 6xHis (N); made in house; host or cells: E. coli BL21 (DE3) Rosetta
Method: (§1) LC8 and MBP-fused LCA5 constructs were prepared in PBS supplemented with 1 mM TCEP. Before measurement, protein samples were dialyzed overnight in PBS pH 7.4 (Orange Scientific, OrDial D14 membrane). Peptides were diluted from stock with the buffer used for dialysis. The concentration of samples was determined based on absorbance at 280 nm in the case of proteins, and 205 nm for the peptide. Experiments were performed using MicroCal PEAQ-ITC (Malvern Panalytical), LCA5 peptides were measured at 25 °C, proteins were analyzed at 37 °C. Lebercilin peptide was injected into the cell 18 times 2 μl volumes, with 5 min timing between injections. In case of the protein, LCA5 was placed in the sample cell, and LC8 was injected during 37 injections, 1 μl each. The results were evaluated using MicroCal PEAQ-ITC Analysis Software.

LC8 [2] = molecular target: T1, LC8; assay: LC8 binding of the second (CQS) motif at the peptide level; conditions: residues 317–324 of LCA5; method not stated; result in words
Method: as §1, with “In case of the protein, LCA5 was placed in the sample cell, and LC8 was injected during 37 injections, 1 μl each.” left out
Fluorescence polarization experiments were carried out at 25 °C in PBS supplemented by 2 mM TCEP and 0.05% Brij using a Synergy H4 (BioTek Instruments) plate reader. […] Briefly, 50 nM labeled BMF peptide was mixed with LC8 in a concentration to achieve 80% saturation, determined by direct titration (12 μM at 80% saturation). Subsequently, the above-mentioned complex was titrated with a two-fold dilution series of competitor LCA5 peptide (DLCTKGVQTME) (start at 500 μM) and the decrease of polarization was recorded. To determine the Kd of the LCA5-peptide-LC8 complex, first the Kd of the BMF-LC8 complex was calculated. […]

LC8 [3] = molecular target: T1, LC8; assay: direct fluorescence polarization titration of labeled BMF peptide with LC8; format: binding; conditions: 50 nM FITC-labeled BMF, PBS, 2 mM TCEP, 0.05% Brij, 25 °C
Method: Fluorescence polarization experiments were carried out at 25 °C in PBS supplemented by 2 mM TCEP and 0.05% Brij using a Synergy H4 (BioTek Instruments) plate reader. N-terminally fluorescein 5-isothiocyanate (FITC) labeled, known binding peptide of LC8, BMF (TSQEDKATQTL) was used as a reporter peptide to form LC8-BMF complex and LCA5 was applied to compete the BMF peptide. Briefly, 50 nM labeled BMF peptide was mixed with LC8 in a concentration to achieve 80% saturation, determined by direct titration (12 μM at 80% saturation). Subsequently, the above-mentioned complex was titrated with a two-fold dilution series of competitor LCA5 peptide (DLCTKGVQTME) (start at 500 μM) and the decrease of polarization was recorded. To determine the Kd of the LCA5-peptide-LC8 complex, first the Kd of the BMF-LC8 complex was calculated. The polarization signal recorded at direct titration of BMF peptide with LC8 was plotted against the concentration of LC8. Then the Kd of the BMF-LC8 complex was calculated by the fitting of a direct binding equation in Origin 8. To determinate the Kd of the competitor peptide, the measured polarization was plotted against the concentration of LCA5 peptide in the competitive titration and the data was fitted by the competitive binding equation in Origin 8 where Kd of the BMF-LC8 complex was one of the parameters of the competitive equation. […]

LC8 [4] = molecular target: T1, LC8; conditions: literature, ref (6)-(10) of supplement, cited from earlier work
Description: According to the standard model of LC8 interactions, the dimeric interface of LC8 presents two interaction sites for partners which also form dimers, implying a 1:1 stoichiometry. Partners with two adjacent binding motifs, like ANA2, follow a 1:2 stoichiometry by binding two LC8[18]. Intriguingly, we observed a 2:1 LCA5:LC8 stoichiometry for the ΔCQS and the ΔVQT mutants, which means that one LC8 dimer binds four LCA5 chains (Supplementary Table S1). A reasonable interpretation is that the native LCA5 is dimeric and thus a pair of LCA5 dimers bind to one dimeric LC8. In such a situation, one i ... || page 10: Composition of complexes Number of LC8 Number of Ratio of LCA5 LC8 binding monomeric binding monomeric LC8 in monomers to LC8 Gene name sites partners in complex complex monomers SWA (6) 1 2 2 1:1 DYNC1I1 (7) 1 2 2 1:1 WDR34-WDR60 3 1+1 6 1:3 (8) ANA2 (9) 2 2 4 1:2 ASCIZ (10) 11 2 22 1:11 sLCA5-WT 2 4 4 1:1 sLCA5-single 1 4 2 2:1 mutants Supplementary Table S1. Stoichiometries of various LC8 binding partners in complex with LC8. Known LC8 binding partners according to literature data always form dimers upon LC8 binding. The stoichiometry is basically 1:1 in case of one LC8 binding sit ...

T1 sequence (Q96FJ2 whole entry): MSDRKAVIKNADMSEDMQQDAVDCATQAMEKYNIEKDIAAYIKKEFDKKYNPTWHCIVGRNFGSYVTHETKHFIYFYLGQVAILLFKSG

CAAAAAAM: sLCA5 with further alanine mutations introduced into the VQT motif
interaction with LC8 (GST pull-down) (GST-fused LC8): persisted despite the mutations

DLCTKGVQTME [LCA5 peptide]
Kd (LC8 [1]): 2.6 µM

KNAACQSD
binding of the second motif to LC8 at the peptide level (LC8 [2]): could not be verified at the peptide level

TSQEDKATQTL [BMF]
LC8 concentration at 80% saturation of labeled BMF peptide (LC8 [3]): 12 µM

WDR34-WDR60: known LC8 binding partner, literature
Number of monomeric LC8 in complex (LC8 [4]; composition of complexes): 6 | Number of monomeric binding partners in complex (LC8 [4]; composition of complexes): 1+1 | LC8 binding sites (LC8 [4]): 3
